Assay: xn = mol fraction of the nth substance listed

Oc1ccccc1Cl + Nc1ccccc1
101 kPa
Details	viscosity [mPa·s]
293.15 K, x1 = 0.1176	5.78
293.15 K, x1 = 0.2278	7.74
293.15 K, x1 = 0.3271	9.6
293.15 K, x1 = 0.3874	10.56
293.15 K, x1 = 0.4366	11.24
293.15 K, x1 = 0.4885	11.66
293.15 K, x1 = 0.5271	11.76
293.15 K, x1 = 0.5756	11.48
293.15 K, x1 = 0.6117	10.96
293.15 K, x1 = 0.7174	9.04
293.15 K, x1 = 0.8625	6.3
298 K, x1 = 0.1032	4.945
298 K, x1 = 0.2004	6.157
298 K, x1 = 0.3011	7.228
298 K, x1 = 0.4069	8.07
298 K, x1 = 0.5008	8.81
298 K, x1 = 0.6002	8
298 K, x1 = 0.7016	6.99
298 K, x1 = 0.7852	5.942
298 K, x1 = 0.9025	4.443
303 K, x1 = 0.1032	4.142
303 K, x1 = 0.2004	5.008
303 K, x1 = 0.3011	5.792
303 K, x1 = 0.4069	6.329
303 K, x1 = 0.5008	6.859
303 K, x1 = 0.6002	6.232
303 K, x1 = 0.7016	5.602
303 K, x1 = 0.7852	4.74
303 K, x1 = 0.9025	3.702
303.15 K, x1 = 0.1176	4.05
303.15 K, x1 = 0.2278	5.06
303.15 K, x1 = 0.3271	5.93
303.15 K, x1 = 0.3874	6.39
303.15 K, x1 = 0.4366	6.72
303.15 K, x1 = 0.4885	6.93
303.15 K, x1 = 0.5271	6.95
303.15 K, x1 = 0.5756	6.86
303.15 K, x1 = 0.6117	6.7
303.15 K, x1 = 0.7174	5.8
303.15 K, x1 = 0.8625	4.31
308 K, x1 = 0.1032	3.556
308 K, x1 = 0.2004	4.265
308 K, x1 = 0.3011	4.728
308 K, x1 = 0.4069	4.979
308 K, x1 = 0.5008	5.417
308 K, x1 = 0.6002	4.922
308 K, x1 = 0.7016	4.511
308 K, x1 = 0.7852	3.826
308 K, x1 = 0.9025	3.108
313 K, x1 = 0.1032	3.11
313 K, x1 = 0.2004	3.638
313 K, x1 = 0.3011	3.9
313 K, x1 = 0.4069	4.024
313 K, x1 = 0.5008	4.382
313 K, x1 = 0.6002	3.966
313 K, x1 = 0.7016	3.75
313 K, x1 = 0.7852	3.283
313 K, x1 = 0.9025	2.744
313.15 K, x1 = 0.1176	2.945
313.15 K, x1 = 0.2278	3.54
313.15 K, x1 = 0.3271	3.99
313.15 K, x1 = 0.3874	4.2
313.15 K, x1 = 0.4366	4.33
313.15 K, x1 = 0.4885	4.39
313.15 K, x1 = 0.5271	4.4
313.15 K, x1 = 0.5756	4.34
313.15 K, x1 = 0.6117	4.24
313.15 K, x1 = 0.7174	3.79
313.15 K, x1 = 0.8625	3.01
318 K, x1 = 0.1032	2.671
318 K, x1 = 0.2004	3.036
318 K, x1 = 0.3011	3.241
318 K, x1 = 0.4069	3.322
318 K, x1 = 0.5008	3.611
318 K, x1 = 0.6002	3.27
318 K, x1 = 0.7016	3.137
318 K, x1 = 0.7852	2.853
318 K, x1 = 0.9025	2.446

CCCN + C=C(C)C(=O)OC
303.15 K, 101 kPa
Details	viscosity [mPa·s]
x2 = 0.1506	0.382
x2 = 0.3776	0.4355
x2 = 0.5053	0.4623
x2 = 0.6058	0.4809
x2 = 0.8285	0.5081

Oc1ccccc1Cl + CCN(CC)CC
298 K, 101.33 kPa
Details	viscosity [mPa·s]
x1 = 0.074	0.447
x1 = 0.305	1.41
x1 = 0.408	3.58
x1 = 0.473	7.81
x1 = 0.552	26.2
x1 = 0.616	109
x1 = 0.65	255
x1 = 0.703	529
x1 = 0.72	594
x1 = 0.751	451
x1 = 0.769	343
x1 = 0.797	213
x1 = 0.843	68.9
x1 = 0.87	34.3
x1 = 0.901	18.3
x1 = 0.956	5.91

CCCCOC(C)=O + CCCCCO
viscosity [mPa·s], 101 kPa
Details	x1 = 0.0963	x1 = 0.2032	x1 = 0.2987	x1 = 0.4058	x1 = 0.4868	x1 = 0.5981	x1 = 0.7048	x1 = 0.7976	x1 = 0.8954
298.15 K	2.974	2.512	2.15	1.797	1.561	1.284	1.059	0.907	0.769
303.15 K	2.593	2.191	1.886	1.573	1.37	1.14	0.963	0.846	0.723
308.15 K	2.287	1.933	1.669	1.396	1.223	1.025	0.875	0.776	0.678
313.15 K	2.018	1.714	1.483	1.261	1.107	0.941	0.809	0.717	0.639

CCCCOC(C)=O + Cc1ccccc1
viscosity [mPa·s], 101 kPa
Details	293.15 K	298.15 K	303.15 K	308.15 K	313.15 K	318.15 K
x1 = 0.0478	–	0.552	–	0.499	–	–
x1 = 0.1494	–	0.556	–	0.503	–	–
x1 = 0.249	–	0.563	–	0.509	–	–
x1 = 0.348	–	0.571	–	0.515	–	–
x1 = 0.4469	–	0.581	–	0.523	–	–
x1 = 0.501	–	0.587	–	0.528	–	–
x1 = 0.5488	–	0.593	–	0.532	–	–
x1 = 0.6468	–	0.607	–	0.543	–	–
x1 = 0.7365	–	0.621	–	0.554	–	–
x1 = 0.8683	–	0.645	–	0.572	–	–
x1 = 0.9671	–	0.666	–	0.588	–	–
x2 = 0.1024	0.7105	0.6642	0.6223	0.5852	0.5502	0.5173
x2 = 0.205	0.6942	0.6504	0.6104	0.5742	0.5405	0.5084
x2 = 0.3107	0.6786	0.6362	0.5973	0.5624	0.5294	0.4996
x2 = 0.4031	0.6661	0.6247	0.587	0.5526	0.5208	0.4908
x2 = 0.4615	0.6566	0.6161	0.579	0.546	0.514	0.4858
x2 = 0.5069	0.6517	0.6115	0.5746	0.5408	0.5103	0.4814
x2 = 0.5564	0.6439	0.6045	0.5683	0.5352	0.5051	0.4769
x2 = 0.614	0.6371	0.5984	0.5628	0.5301	0.5003	0.4725
x2 = 0.7101	0.6252	0.5864	0.5515	0.5197	0.4913	0.4644
x2 = 0.8103	0.6123	0.5753	0.5419	0.5103	0.4833	0.4562
x2 = 0.908	0.6017	0.5667	0.5337	0.5035	0.4761	0.4496
